# Reference: ChEMBL document CHEMBL3784964, “Targeting the trehalose utilization pathways of Mycobacterium tuberculosis” (Medchemcomm, 2016)
# Legend:
# [1] = tested on: Mycobacterium tuberculosis; test: Antimycobacterial activity against Mycobacterium tuberculosis H37Rv by microdilution method; format: functional
# [2] = Inhibition of recombinant Mycobacterium tuberculosis H37Rv N-terminal His-tagged glgE expressed in Escherichia coli T7 Rosetta cells using MESG as substrate measured every 5 sec for 10 mins by PNP enzyme coupled assay
# [3] = tested on: Mycobacterium tuberculosis; test: Antimycobacterial activity against Mycobacterium tuberculosis H37Rv by 2-fold broth dilution method; format: functional
# [4] = tested on: Mycobacterium tuberculosis; test: Inhibition of Mycobacterium tuberculosis antigen 85C mycolyltransferase activity at 100 ug/ml incubated for 30 mins by scintillation counting method in presence of [14C]-trehalose relative to control
# [5] = tested on: Mycobacterium tuberculosis; test: Antimycobacterial activity against Mycobacterium tuberculosis H37Ra ATCC 25177; format: functional
# [6] = Inhibition of Mycobacterium tuberculosis antigen 85C acyltransferase activity preincubated with enzyme by UV-vis spectrophotometric analysis
# [7] = tested on: Mycobacterium tuberculosis; test: Antimycobacterial activity against Mycobacterium tuberculosis H37Rv mc26206 incubated for 96 hrs by resazurin microtiter assay; format: functional; settings: H37Rv mc26206, 96 h
# [8] = Inhibition of Mycobacterium tuberculosis antigen 85C mycolyltransferase activity incubated for 30 mins by scintillation counting method in presence of [14C]-trehalose
# [9] = Competitive inhibition of recombinant Mycobacterium smegmatis trehalose synthase using DNPGlc as substrate by Dixon plot analysis; design: species or system Mycolicibacterium smegmatis
# [10] = tested on: Mycobacterium tuberculosis; test: Antimycobacterial activity against Mycobacterium tuberculosis incubated for 96 hrs by resazurin microtiter assay; format: functional
# [11] = tested on: Mycobacterium tuberculosis; test: Antimycobacterial activity against Mycobacterium tuberculosis H37Rv; format: functional
# [12] = Inhibition of Mycobacterium tuberculosis antigen 85C mycolyltransferase activity using trehalose as substrate measured every 20 sec for 30 mins by 4-methylumbelliferyl butyrate fluorescence assay
compound,measurement,setting,value
COC(=O)c1c(NC(=O)c2c(F)c(F)c(F)c(F)c2F)sc2c1CCCCC2,MIC,[1],1 µM
OC[C@H]1N[C@H](CO)[C@@H](O[C@H]2O[C@H](CO)[C@@H](O)[C@H](O)[C@H]2O)[C@@H]1O,Ki,[2],237 µM
CC(C)=CCC/C(C)=C/CNCCNC1C2CC3CC(C2)CC1C3 (stereo not drawn) [SQ109],MIC,[3],1.5 µg/mL
[N-]=[N+]=NC[C@H]1O[C@H](O[C@H]2O[C@H](CO)[C@@H](O)[C@H](O)[C@H]2O)[C@H](O)[C@@H](O)[C@@H]1O,inhibition,[4],60%
CCCCCCCCNC[C@H]1O[C@H](O[C@H]2O[C@H](CNCCCCCCCC)[C@@H](O)[C@H](O)[C@H]2O)[C@H](O)[C@@H](O)[C@@H]1O,MIC,[5],4 µg/mL
CCOC(=O)c1c(NC(=O)c2c(F)c(F)c(F)c(F)c2F)sc(C(N)=O)c1C,MIC,[1],0.5 µM
COC(=O)CC[C@H]1O[C@@H](OC)[C@@H](O)[C@@H]1O,IC50,[6],25000 µM
O=c1c2ccccc2[se]n1-c1ccccc1 [EBSELEN],MIC,[7],20 µg/mL
CCCCCCCCS(=O)(=O)OCCN1C(=O)c2ccccc2C1=O,IC50,[8],4.3 µM
OC[C@H]1NC[C@H](O)[C@@H](O)[C@@H]1O [DUVOGLUSTAT],Ki,[9],0.25 µM
CCCC1CCc2c(sc(N)c2C#N)C1 (stereo not drawn),MIC,[10],100 µM
O=C(Nc1ccc(F)c(F)c1F)NC12CC3CC(CC(C3)C1)C2,MIC,[11],0.5 µg/mL
CCCCC(CC)CNC[C@H]1O[C@H](O[C@H]2O[C@H](CNCC(CC)CCCC)[C@@H](O)[C@H](O)[C@H]2O)[C@H](O)[C@@H](O)[C@@H]1O (stereo partly drawn),MIC,[5],32 µg/mL
CCCCCCCCS(=O)(=O)NC[C@H]1O[C@H](O[C@H]2O[C@H](CNS(=O)(=O)CCCCCCCC)[C@@H](O)[C@H](O)[C@H]2O)[C@H](O)[C@@H](O)[C@@H]1O,MIC,[5],16 µg/mL
CCCCCCCCCCCCNC[C@H]1O[C@H](O[C@H]2O[C@H](CNCCCCCCCCCCCC)[C@@H](O)[C@H](O)[C@H]2O)[C@H](O)[C@@H](O)[C@@H]1O,MIC,[5],8 µg/mL
CCOC(=O)c1c(NC(=O)SC[C@H]2O[C@@H](O)[C@@H](O)[C@@H]2O)sc2c1CCCC2,Ki,[12],18.2 µM
CCc1sc(NC(=O)c2c(F)c(F)c(F)c(F)c2F)c(C(=O)OC(C)C)c1C,MIC,[1],1 µM
CCCCCCCCCCNC[C@H]1O[C@H](O[C@H]2O[C@H](CNCCCCCCCCCC)[C@@H](O)[C@H](O)[C@H]2O)[C@H](O)[C@@H](O)[C@@H]1O,MIC,[5],1.3 µg/mL
CCCn1cnc2cc(NCc3ccc(Cl)cc3Cl)ccc21,MIC,[11],16 µM
c1ccc(CNC23CC4CC(CC(C4)C2)C3)cc1,MIC,[1],10 µM
CN1CCN(Cc2cc(-c3ccc(Cl)cc3)n(-c3ccc(Cl)cc3)c2-c2ccccc2)CC1,MIC,[11],1.5 µg/mL
O=C(Nc1ccccc1)O/N=C1\N[C@H](CO)[C@@H](O)[C@H](O)[C@H]1O,Ki,[9],2.1 µM
OC[C@@H]1[C@@H](O)[C@H](O)C2[C@H](O)[C@@H](O)CN21 (stereo partly drawn),Ki,[9],2.5 µM
